# Tested on: Plasmodium berghei
# Test: Luciferase/luciferin-expressing antifolate-resistant parasites were used to infect a culture of HepG2 cells that were pre-incubated with compounds. Infected hepatocytes emit light due to the luciferase reaction. Assay results are presented as the percent inhibition of light emission compared to control. […]
# Type: functional
# Details: sporozoite; for IC90: read-out: LUCIFERASE INFECTION ASSAY - IC90
Compound,IC90,also measured
Cc1nn(CC(C)C)c(Cl)c1C(=O)Nc1nc(-c2ccccn2)cs1,3350 nM,"IC50 (HEPG2TOX_HILL_SLOPE 0.847, HEPG2TOX_R_SQUARED 0.93, PBLUC_HILL_SLOPE 12, PBLUC_R_SQUARED 0.706, read-out: LUCIFERASE INFECTION ASSAY - IC50): 2790 nM"
Cc1ccccc1-c1cn2c(-c3ccc4c(c3)OCO4)cnc2cn1,821 nM,"IC50 (HEPG2TOX_HILL_SLOPE 0.84, HEPG2TOX_R_SQUARED 0.902, PBLUC_HILL_SLOPE 1.93, PBLUC_R_SQUARED 0.734, read-out: LUCIFERASE INFECTION ASSAY - IC50): 263 nM"
Cc1nn(-c2ccc(C(F)(F)F)cn2)c2ncc(CCCO)cc12,> 10000 nM,"IC50 (HEPG2TOX_HILL_SLOPE 0.869, HEPG2TOX_R_SQUARED 0.0884, read-out: LUCIFERASE INFECTION ASSAY - IC50): > 10000 nM"
CC(C)Oc1ccc(-c2nc3c4c5c(sc4ncn3n2)CN(C)CC5)cc1,> 8700 nM,"IC50 (HEPG2TOX_HILL_SLOPE 0.881, HEPG2TOX_R_SQUARED 0.629, PBLUC_HILL_SLOPE 9.03, PBLUC_R_SQUARED 0.277, read-out: LUCIFERASE INFECTION ASSAY - IC50): 8350 nM"
O=C1C=C/C(=N\Nc2ccccc2C(F)(F)F)c2cccnc21,1310 nM,"IC50 (HEPG2TOX_HILL_SLOPE 0.86, HEPG2TOX_R_SQUARED 0.964, PBLUC_HILL_SLOPE 13.8, PBLUC_R_SQUARED 0.7, read-out: LUCIFERASE INFECTION ASSAY - IC50): 1120 nM"
CC(C)n1ncc2cc(C(=O)Nc3ccc4oc5ccccc5c4c3)cnc21,6740 nM,"IC50 (HEPG2TOX_HILL_SLOPE 0.893, HEPG2TOX_R_SQUARED 0.928, PBLUC_HILL_SLOPE 1.69, PBLUC_R_SQUARED 0.728, read-out: LUCIFERASE INFECTION ASSAY - IC50): 1840 nM"
COC(=O)c1c(C)[nH]c(C(=O)N2CCCN(Cc3ccc(C(F)(F)F)cc3)CC2)c1C,3510 nM,"IC50 (HEPG2TOX_HILL_SLOPE 0.883, HEPG2TOX_R_SQUARED 0.94, PBLUC_HILL_SLOPE 33.9, PBLUC_R_SQUARED 0.31, read-out: LUCIFERASE INFECTION ASSAY - IC50): 3290 nM"
O=C(c1cnn(C(=O)c2nn(-c3ccc(Cl)cc3)cc2O)c1)c1ccccc1O,3830 nM,"IC50 (HEPG2TOX_HILL_SLOPE 0.890, 1.11, HEPG2TOX_R_SQUARED 0.813, 0.357, PBLUC_HILL_SLOPE 9.04, 15.6, PBLUC_R_SQUARED 0.0255, 0.659, read-out: LUCIFERASE INFECTION ASSAY - IC50): 3140 nM"
Cc1ccc(O)c(C(=O)NCC(C)c2ccccc2)c1 (configuration not stated),9340 nM,"IC50 (HEPG2TOX_HILL_SLOPE 0.817, HEPG2TOX_R_SQUARED 0.794, PBLUC_HILL_SLOPE 3.45, PBLUC_R_SQUARED 0.175, read-out: LUCIFERASE INFECTION ASSAY - IC50): 4940 nM"
COc1ccccc1N1CCN(c2ncnc3sc(C)c(-c4ccc(F)cc4)c23)CC1,> 10000 nM,"IC50 (HEPG2TOX_HILL_SLOPE 0.826, HEPG2TOX_R_SQUARED 0.707, read-out: LUCIFERASE INFECTION ASSAY - IC50): > 10000 nM"
CC(C)NC(=O)c1c(NC(=O)c2cc(F)c(Cl)cc2F)nc2ccccn12,1420 nM,"IC50 (HEPG2TOX_HILL_SLOPE 0.89, HEPG2TOX_R_SQUARED 0.947, PBLUC_HILL_SLOPE 3.47, PBLUC_R_SQUARED 0.71, read-out: LUCIFERASE INFECTION ASSAY - IC50): 755 nM"
N#CC(C#N)=NNc1ccc(F)cc1F,> 16000 nM,"IC50 (HEPG2TOX_HILL_SLOPE 0.862, HEPG2TOX_R_SQUARED 0.0964, read-out: LUCIFERASE INFECTION ASSAY - IC50): > 16000 nM"
CC(C)CN1CCC1(C(=O)Nc1ccncc1)c1ccccc1 (configuration not stated),6570 nM,"IC50 (HEPG2TOX_HILL_SLOPE 0.888, HEPG2TOX_R_SQUARED 0.951, PBLUC_HILL_SLOPE 1.36, PBLUC_R_SQUARED 0.753, read-out: LUCIFERASE INFECTION ASSAY - IC50): 1310 nM"
CC(=O)Nc1ccc(NC(=O)C2=COC3=NC(=O)N(Cc4ccccc4C)CCN23)cc1,> 10000 nM,"IC50 (HEPG2TOX_HILL_SLOPE 0.88, HEPG2TOX_R_SQUARED 0.892, PBLUC_HILL_SLOPE 1, PBLUC_R_SQUARED 0.725, read-out: LUCIFERASE INFECTION ASSAY - IC50): 4160 nM"
Cc1cc(C)nc(-n2[nH]c3[nH]c(-c4cccc5ccccc45)cc(=O)c3c2=O)n1,1990 nM,"IC50 (HEPG2TOX_HILL_SLOPE 0.872, HEPG2TOX_R_SQUARED 0.686, PBLUC_HILL_SLOPE 1.74, PBLUC_R_SQUARED 0.695, read-out: LUCIFERASE INFECTION ASSAY - IC50): 566 nM"
C=CCNC(=S)N1N=C2/C(=C/c3ccc(OCC)cc3)CCCC2C1c1ccc(OCC)cc1 (configuration not stated),> 10000 nM,"IC50 (HEPG2TOX_HILL_SLOPE 0.856, HEPG2TOX_R_SQUARED 0.318, PBLUC_HILL_SLOPE 2.55, PBLUC_R_SQUARED 0.497, read-out: LUCIFERASE INFECTION ASSAY - IC50): 4450 nM"

Compound,IC90,also measured
CC(Sc1nc(-c2ccccc2)c(-c2ccccc2)o1)C(=O)NCc1ccco1 (configuration not stated),8620 nM,"IC50 (HEPG2TOX_HILL_SLOPE 0.891, HEPG2TOX_R_SQUARED 0.604, PBLUC_HILL_SLOPE 2.26, 2.77, PBLUC_R_SQUARED 0.745, 0.857, read-out: LUCIFERASE INFECTION ASSAY - IC50): 5300 nM"
Cc1ccc(-c2cs/c(=N\CCN3CCOCC3)n2/N=C/c2cccs2)cc1C,> 10000 nM,"IC50 (HEPG2TOX_HILL_SLOPE 0.856, HEPG2TOX_R_SQUARED 0.317, read-out: LUCIFERASE INFECTION ASSAY - IC50): > 10000 nM"
C/C(=N\NC(=O)c1ccc(C(F)(F)F)cc1)c1ccccc1O,3380 nM,"IC50 (HEPG2TOX_HILL_SLOPE 0.838, HEPG2TOX_R_SQUARED 0.996, PBLUC_HILL_SLOPE 3.61, PBLUC_R_SQUARED 0.312, read-out: LUCIFERASE INFECTION ASSAY - IC50): 1840 nM"
Cc1cc(SC(C)C(=O)N(Cc2ccccc2)Cc2ccccc2)nc2ccccc12 (configuration not stated),> 10000 nM,"IC50 (HEPG2TOX_HILL_SLOPE 0.863, HEPG2TOX_R_SQUARED 0.817, read-out: LUCIFERASE INFECTION ASSAY - IC50): > 10000 nM"
COc1ccc(/C=C/c2ccc3c(Cl)cc(Cl)c(O)c3n2)cc1,430 nM,"IC50 (HEPG2TOX_HILL_SLOPE 0.83, HEPG2TOX_R_SQUARED 0.868, PBLUC_HILL_SLOPE 16.3, PBLUC_R_SQUARED 0.735, read-out: LUCIFERASE INFECTION ASSAY - IC50): 375 nM"
O=C(Nc1ccc(Br)c(C(F)(F)F)c1)c1ccc(N2CCOCC2)nc1,> 10000 nM,"IC50 (HEPG2TOX_HILL_SLOPE 0.861, HEPG2TOX_R_SQUARED 0.877, PBLUC_HILL_SLOPE 1.11, PBLUC_R_SQUARED 0.718, read-out: LUCIFERASE INFECTION ASSAY - IC50): 1480 nM"
Cn1ccc2cc(-c3cn4c(-c5ccc6c(c5)OCO6)cnc4cn3)ccc21,402 nM,"IC50 (HEPG2TOX_HILL_SLOPE 0.831, HEPG2TOX_R_SQUARED 0.884, PBLUC_HILL_SLOPE 11.3, PBLUC_R_SQUARED 0.726, read-out: LUCIFERASE INFECTION ASSAY - IC50): 330 nM"
COc1ccccc1-[n+]1c(C)cc(C=C2Sc3ccc4ccccc4c3N2C)cc1C,611 nM,"IC50 (HEPG2TOX_HILL_SLOPE 0.863, HEPG2TOX_R_SQUARED 0.853, PBLUC_HILL_SLOPE 2.28, PBLUC_R_SQUARED 0.851, read-out: LUCIFERASE INFECTION ASSAY - IC50): 233 nM"
FC(F)(F)c1cccc(CNc2ncnc3sccc23)c1,6390 nM,"IC50 (HEPG2TOX_HILL_SLOPE 0.888, 1.51, HEPG2TOX_R_SQUARED 0.921, 0.862, PBLUC_HILL_SLOPE 1.26, 1.66, PBLUC_R_SQUARED 0.564, 0.617, read-out: LUCIFERASE INFECTION ASSAY - IC50): 1420 nM"
O=C(c1ccc(-n2cccn2)cc1)N1CCC(n2c(=O)[nH]c3ccccc32)CC1,> 10000 nM,"IC50 (HEPG2TOX_HILL_SLOPE 0.884, HEPG2TOX_R_SQUARED 0.19, PBLUC_HILL_SLOPE 11.8, PBLUC_R_SQUARED 0.218, read-out: LUCIFERASE INFECTION ASSAY - IC50): 9850 nM"
OCc1ccc(-c2cnc3ccc(NCc4ccc(F)cc4)nn23)cc1,1240 nM,"IC50 (HEPG2TOX_HILL_SLOPE 0.86, HEPG2TOX_R_SQUARED 0.883, PBLUC_HILL_SLOPE 13, PBLUC_R_SQUARED 0.726, read-out: LUCIFERASE INFECTION ASSAY - IC50): 1050 nM"
COc1ccccc1N(Cc1nc(N)nc(Nc2ccc(C)cc2)n1)S(=O)(=O)c1cccs1,4300 nM,"IC50 (HEPG2TOX_HILL_SLOPE 0.853, HEPG2TOX_R_SQUARED 0.978, PBLUC_HILL_SLOPE 2.92, PBLUC_R_SQUARED 0.627, read-out: LUCIFERASE INFECTION ASSAY - IC50): 2030 nM"
COc1ccc(CNC(=O)CCOc2ccc(C(C)(C)C)cc2)cc1OC,> 10000 nM,"IC50 (HEPG2TOX_HILL_SLOPE 0.891, HEPG2TOX_R_SQUARED 0.4, PBLUC_HILL_SLOPE 0.658, PBLUC_R_SQUARED 0.48, read-out: LUCIFERASE INFECTION ASSAY - IC50): 4600 nM"
O=C(Cc1cn2ccsc2n1)NNC(=O)c1cc(Cl)ccc1O,414 nM,"IC50 (HEPG2TOX_HILL_SLOPE 0.838, HEPG2TOX_R_SQUARED 0.788, PBLUC_HILL_SLOPE 20.5, PBLUC_R_SQUARED 0.865, read-out: LUCIFERASE INFECTION ASSAY - IC50): 372 nM"
CCOC(=O)Nc1nc2ccc(C(F)(F)F)cc2[nH]1,1100 nM,"IC50 (HEPG2TOX_HILL_SLOPE 0.892, HEPG2TOX_R_SQUARED 0.914, PBLUC_HILL_SLOPE 2.52, PBLUC_R_SQUARED 0.681, read-out: LUCIFERASE INFECTION ASSAY - IC50): 459 nM"
